In PubChem BioAssay AID1259407 (Chemical Carcinogenesis Research Information System (CCRIS), 2018):
Activity calls are given as the source filed them. How the calls were made is not given here.

Tested on: CCRIS mutagenicity, Ames/micronucleus/aberration tests
Experiment: CCRIS mutagenicity studies

Nc1ccc(Cc2ccc(N)cc2)cc1
mutagenic call (End Point: IN VIVO MICRONUCLEUS, Test System: PERIPHERAL BLOOD RETICULOCYTES, Species: RAT, Strain/Sex: FISHER 344 OR SD/MALE, Route: ORAL OR IP): inactive; negative
mutagenic call (Test System: AMES SALMONELLA TYPHIMURIUM, Strain/Indicator: TA97, Metabolic Activation: HAMSTER, LIVER, S-9, AROCLOR 1254 (10%), Method: PREINCUBATION): active; positive
mutagenic call (Test System: AMES SALMONELLA TYPHIMURIUM, Strain/Indicator: TA97, Metabolic Activation: NONE, Method: PREINCUBATION): inactive; negative
mutagenic call (Test System: AMES SALMONELLA TYPHIMURIUM, Strain/Indicator: TA98, Metabolic Activation: HAMSTER, LIVER, S-9, AROCLOR 1254 (10%), Method: PREINCUBATION): active; positive
mutagenic call (Test System: AMES SALMONELLA TYPHIMURIUM, Strain/Indicator: TA98, Metabolic Activation: NONE, Method: PREINCUBATION): inactive; negative
mutagenic call (Test System: AMES SALMONELLA TYPHIMURIUM, Strain/Indicator: TA98, Metabolic Activation: NONE, Method: STANDARD PLATE): inactive; negative
mutagenic call (Test System: AMES SALMONELLA TYPHIMURIUM, Strain/Indicator: TA98, Metabolic Activation: RAT, LIVER, S-9, AROCLOR 1254, Method: STANDARD PLATE): active; positive
mutagenic call (Test System: AMES SALMONELLA TYPHIMURIUM, Strain/Indicator: TA98, Metabolic Activation: RAT, LIVER, S-9, PCB, Method: PREINCUBATION): active; positive
mutagenic call (Test System: AMES SALMONELLA TYPHIMURIUM, Strain/Indicator: TA98, Metabolic Activation: RAT, LIVER, S-9, PCB, Method: STANDARD PLATE): active; positive
mutagenic call (Test System: AMES SALMONELLA TYPHIMURIUM, Strain/Indicator: TA98, Metabolic Activation: RAT, LIVER, S-9, PHENOBARBITAL, Method: PREINCUBATION): inactive; negative
mutagenic call (Test System: AMES SALMONELLA TYPHIMURIUM, Strain/Indicator: TA100, Metabolic Activation: HAMSTER, LIVER, S-9, AROCLOR 1254 (10%), Method: PREINCUBATION): active; positive
mutagenic call (Test System: AMES SALMONELLA TYPHIMURIUM, Strain/Indicator: TA100, Metabolic Activation: NONE, Method: PREINCUBATION): inactive; negative
mutagenic call (Test System: AMES SALMONELLA TYPHIMURIUM, Strain/Indicator: TA100, Metabolic Activation: NONE, Method: STANDARD PLATE): inactive; negative
mutagenic call (Test System: AMES SALMONELLA TYPHIMURIUM, Strain/Indicator: TA100, Metabolic Activation: RAT, LIVER, S-9, AROCLOR 1254 (10%), Method: PREINCUBATION): active; positive
mutagenic call (Test System: AMES SALMONELLA TYPHIMURIUM, Strain/Indicator: TA100, Metabolic Activation: RAT, LIVER, S-9, AROCLOR 1254, Method: STANDARD PLATE): active; positive
mutagenic call (Test System: AMES SALMONELLA TYPHIMURIUM, Strain/Indicator: TA100, Metabolic Activation: RAT, LIVER, S-9, PCB, Method: PREINCUBATION): active; positive
mutagenic call (Test System: AMES SALMONELLA TYPHIMURIUM, Strain/Indicator: TA100, Metabolic Activation: RAT, LIVER, S-9, PCB, Method: STANDARD PLATE): active; positive
mutagenic call (Test System: AMES SALMONELLA TYPHIMURIUM, Strain/Indicator: TA100, Metabolic Activation: RAT, LIVER, S-9, PHENOBARBITAL, Method: PREINCUBATION): active; positive
mutagenic call (Test System: AMES SALMONELLA TYPHIMURIUM, Strain/Indicator: TA1535, Metabolic Activation: HAMSTER, LIVER, S-9, AROCLOR 1254 (5 OR 30%), Method: PREINCUBATION): active; positive
mutagenic call (Test System: AMES SALMONELLA TYPHIMURIUM, Strain/Indicator: TA1535, Metabolic Activation: HAMSTER, LIVER, S-9, AROCLOR 1254 (10%), Method: PREINCUBATION): active; positive
mutagenic call (Test System: AMES SALMONELLA TYPHIMURIUM, Strain/Indicator: TA1535, Metabolic Activation: NONE, Method: PREINCUBATION): inactive; negative
mutagenic call (Test System: AMES SALMONELLA TYPHIMURIUM, Strain/Indicator: TA1535, Metabolic Activation: RAT, LIVER, S-9, AROCLOR 1254 (10%), Method: PREINCUBATION): inactive; negative
mutagenic call (Test System: E. COLI, Strain/Indicator: WP2 UVRA, Metabolic Activation: HAMSTER, LIVER, S-9, AROCLOR 1254, Method: STANDARD PLATE): inactive; negative
mutagenic call (Test System: E. COLI, Strain/Indicator: WP2 UVRA, Metabolic Activation: HAMSTER, LIVER, S-9, Method: STANDARD PLATE): inactive; negative
mutagenic call (Test System: E. COLI, Strain/Indicator: WP2 UVRA, Metabolic Activation: MOUSE, LIVER, S-9, AROCLOR 1254, Method: STANDARD PLATE): inactive; negative
mutagenic call (Test System: E. COLI, Strain/Indicator: WP2 UVRA, Metabolic Activation: MOUSE, LIVER, S-9, Method: STANDARD PLATE): inactive; negative
mutagenic call (Test System: E. COLI, Strain/Indicator: WP2 UVRA, Metabolic Activation: NONE, Method: STANDARD PLATE): inactive; negative
mutagenic call (Test System: E. COLI, Strain/Indicator: WP2 UVRA, Metabolic Activation: RAT, LIVER, S-9, AROCLOR 1254, Method: STANDARD PLATE): inactive; negative
mutagenic call (Test System: E. COLI, Strain/Indicator: WP2 UVRA, Metabolic Activation: RAT, LIVER, S-9, Method: STANDARD PLATE): inactive; negative
mutagenic call (Test System: UDS RAT HEPATOCYTES, Strain/Indicator: BROMODEOXYURIDINE INCORP, Metabolic Activation: NONE, Method: FLOW CYTOMETRIC ANALYSIS): inactive; negative
mutagenic call (Test System: UDS RAT HEPATOCYTES, Strain/Indicator: THY INCORP, Metabolic Activation: NONE, Method: AUTORADIOGRAPHY): inactive; negative
